# Experimental data from patent publication US10730874B2 (Shire Human Genetic Therapies, Inc., priority 2018, dated 2020).
# Like-named read-outs stand apart in the source and are kept apart here.
# Target: human activated kallikrein enzyme (plasma kallikrein) (Homo sapiens (Human), UniProt P03952)
# Assay: Inhibition of human activated plasma kallikrein, fluorogenic peptide substrate assay, 500 pM enzyme format
# Assay type: biochemical
# Settings: read-out: Primary Dose Response Assay: Average EC50
# Outline: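 Buffer 20 mM Tris pH 7.5, EDTA, NaCl, PEG-400, Triton X-100; 300 uM Pro-Phe-Arg-AMC; enzyme–inhibitor preincubation 30 min RT. Format one: 500 pM kallikrein, 10 min RT reaction; format two: 5 pM kallikrein, 18 h RT reaction. Fluorescence read at 460 nm (380 nm excitation).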
# [1] = 500 pM activated kallikrein enzyme, 300 uM Pro-Phe-Arg-7-amido-4-methylcoumarin substrate, 30 min preincubation, 10 min at RT
# Chain of human activated kallikrein enzyme (plasma kallikrein) (P03952 391-638): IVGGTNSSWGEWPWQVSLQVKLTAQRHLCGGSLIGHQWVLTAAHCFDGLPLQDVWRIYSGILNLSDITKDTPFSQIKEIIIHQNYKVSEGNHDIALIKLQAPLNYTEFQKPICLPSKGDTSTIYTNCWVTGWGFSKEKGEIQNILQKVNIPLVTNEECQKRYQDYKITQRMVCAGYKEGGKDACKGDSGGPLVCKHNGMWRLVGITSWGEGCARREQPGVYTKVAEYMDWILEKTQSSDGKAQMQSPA
# Chain of human activated kallikrein enzyme (plasma kallikrein) (P03952 20-390 partner): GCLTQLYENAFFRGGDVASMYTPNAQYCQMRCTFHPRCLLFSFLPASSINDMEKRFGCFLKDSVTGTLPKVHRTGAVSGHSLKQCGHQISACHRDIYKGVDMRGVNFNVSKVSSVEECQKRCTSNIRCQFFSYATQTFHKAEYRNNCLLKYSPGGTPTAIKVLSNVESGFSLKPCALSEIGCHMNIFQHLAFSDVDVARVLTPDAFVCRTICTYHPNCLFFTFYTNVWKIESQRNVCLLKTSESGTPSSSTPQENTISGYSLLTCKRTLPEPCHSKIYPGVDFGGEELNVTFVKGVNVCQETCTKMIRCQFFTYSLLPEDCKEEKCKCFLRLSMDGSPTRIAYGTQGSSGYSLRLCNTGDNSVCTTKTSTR
SMILES,EC50 [1],"EC50 (comparative compounds (Table II), assay format with 500 pM (500 μM in the source) activated kallikrein)"
"Cc1ccc2nc(Cn3cc(C(=O)NCc4ncn5ccc(Br)cc45)cn3)cn2c1C [Example I-26, N-((7-bromoimidazo[1,5-a]pyridin-1-yl)methyl)-1-((5,6-dimethylimidazo[1,2-a]pyridin-2-yl)methyl)-1H-pyrazole-4-carboxamide]",1 to 10 nM,–
COCc1nn(Cc2ccc(N3CCCC3)nc2)cc1C(=O)NCc1c(-n2cnnn2)ccc(OC)c1F [reference compound],–,1 to 10 nM
"O=C(NCc1ncn2ccc(Cl)c(F)c12)c1cn(Cc2cn3cc(Cl)cc(C4COC4)c3n2)nn1 [Example I-187, 1-((6-chloro-8-(oxetan-3-yl)imidazo[1,2-a]pyridin-2-yl)methyl)-N-((7-chloro-8-fluoroimidazo[1,5-a]pyridin-1-yl)methyl)-1H-1,2,3-triazole-4-carboxamide]",< 1 nM,–
"O=C(NCc1ncn2ccc(Cl)c(F)c12)c1cn(Cc2cn3cc(C4CC4)cc(CC4(C(=O)O)CCCC4)c3n2)nn1 [Example I-221b, 1-((2-((4-(((7-chloro-8-fluoroimidazo[1,5-a]pyridin-1-yl)methyl)carbamoyl)-1H-1,2,3-triazol-1-yl)methyl)-6-cyclopropylimidazo[1,2-a]pyridin-8-yl)methyl)cyclopentane-1-carboxylic acid]",< 1 nM,–
"O=C(NCc1ncn2ccc(Cl)c(F)c12)c1cn(Cc2[nH]c3ccc(C4CC4)cc3c2C(F)(F)F)nn1 [Example I-211, N-((7-chloro-8-fluoroimidazo[1,5-a]pyridin-1-yl)methyl)-1-((5-cyclopropyl-3-(trifluoromethyl)-1H-indol-2-yl)methyl)-1H-1,2,3-triazole-4-carboxamide]",10 to 100 nM,–
"O=Cc1cc(C2CC2)cn2cc(Cn3cc(C(=O)NCc4ncn5ccc(Cl)c(F)c45)nn3)nc12 [Example I-182, N-((7-chloro-8-fluoroimidazo[1,5-a]pyridin-1-yl)methyl)-1-((6-cyclopropyl-8-formylimidazo[1,2-a]pyridin-2-yl)methyl)-1H-1,2,3-triazole-4-carboxamide]",< 1 nM,–
"CC(NC(=O)c1cnn(Cc2cn3cc(C4CC4)ccc3n2)c1)c1ncn2ccc(Br)cc12 (stereo not drawn) [Example I-74, N-(1-(7-bromoimidazo[1,5-a]pyridin-1-yl)ethyl)-1-((6-cyclopropylimidazo[1,2-a]pyridin-2-yl)methyl)-1H-pyrazole-4-carboxamide]",1 to 10 nM,–
"O=C(NCc1ncn2ccc(Cl)cc12)c1cnn(Cc2cn3cc(C4CC4)cc(C(F)(F)F)c3n2)c1 [Example I-143, N-((7-chloroimidazo[1,5-a]pyridin-1-yl)methyl)-1-((6-cyclopropyl-8-(trifluoromethyl)imidazo[1,2-a]pyridin-2-yl)methyl)-1H-pyrazole-4-carboxamide]",< 1 nM,–
"CC(C)(O)Cc1cc(C2CC2)cn2cc(Cn3cc(C(=O)NCc4ncn5ccc(Cl)cc45)cn3)nc12 [Example I-109, N-((7-chloroimidazo[1,5-a]pyridin-1-yl)methyl)-1-((6-cyclopropyl-8-(2-hydroxy-2-methylpropyl)imidazo[1,2-a]pyridin-2-yl)methyl)-1H-pyrazole-4-carboxamide]",< 1 nM,–
"O=C(NCc1ncn2ccc(Cl)cc12)c1cnn(Cc2cn3c(F)c(C4CC4)ccc3n2)c1 [Example I-59, N-((7-chloroimidazo[1,5-a]pyridin-1-yl)methyl)-1-((6-cyclopropyl-5-fluoroimidazo[1,2-a]pyridin-2-yl)methyl)-1H-pyrazole-4-carboxamide]",< 1 nM,–
"O=C(NCc1ncn2ccc(Cl)c(F)c12)c1cc(C(=O)O)n(Cc2cn3cc(C4CC4)ccc3n2)c1 [Example I-270b, 4-(((7-chloro-8-fluoroimidazo[1,5-a]pyridin-1-yl)methyl)carbamoyl)-1-((6-cyclopropylimidazo[1,2-a]pyridin-2-yl)methyl)-1H-pyrrole-2-carboxylic acid]",< 1 nM,–
"O=C(NCc1ncn2ccc(Br)c(F)c12)c1nnn(Cc2cn3cc(C4CC4)ccc3n2)n1 [Example I-135, N-((7-bromo-8-fluoroimidazo[1,5-a]pyridin-1-yl)methyl)-2-((6-cyclopropylimidazo[1,2-a]pyridin-2-yl)methyl)-2H-tetrazole-5-carboxamide]",< 1 nM,–
"O=C(NCc1ncn2ccc(Cl)cc12)c1cnn(Cc2cn3cc(C4CC4)cc(Cc4nnco4)c3n2)c1 [Example I-155, 1-((8-((1,3,4-oxadiazol-2-yl)methyl)-6-cyclopropylimidazo[1,2-a]pyridin-2-yl)methyl)-N-((7-chloroimidazo[1,5-a]pyridin-1-yl)methyl)-1H-pyrazole-4-carboxamide]",< 1 nM,–
"O=C(O)c1cnn(Cc2cc(C3CC3)cn3cc(Cn4cc(C(=O)NCc5ncn6ccc(Cl)c(F)c56)nn4)nc23)c1 [Example I-193, 1-((2-((4-(((7-chloro-8-fluoroimidazo[1,5-a]pyridin-1-yl)methyl)carbamoyl)-1H-1,2,3-triazol-1-yl)methyl)-6-cyclopropylimidazo[1,2-a]pyridin-8-yl)methyl)-1H-pyrazole-4-carboxylic acid]",< 1 nM,–
"NC(=O)CCc1cc(C2CC2)cn2cc(Cn3cc(C(=O)NCc4ncn5ccc(Cl)cc45)nn3)nc12 [Example I-183, 1-((8-(3-amino-3-oxopropyl)-6-cyclopropylimidazo[1,2-a]pyridin-2-yl)methyl)-N-((7-chloroimidazo[1,5-a]pyridin-1-yl)methyl)-1H-1,2,3-triazole-4-carboxamide]",< 1 nM,–
"N#CCCc1cc(C2CC2)cn2cc(Cn3cc(C(=O)NCc4ncn5ccc(Cl)cc45)nn3)nc12 [Example I-184, N-((7-chloroimidazo[1,5-a]pyridin-1-yl)methyl)-1-((8-(2-cyanoethyl)-6-cyclopropylimidazo[1,2-a]pyridin-2-yl)methyl)-1H-1,2,3-triazole-4-carboxamide]",< 1 nM,–
"O=C(NCc1ncn2ccc(Br)c(F)c12)c1cn(Cc2cn3cc(C4CC4)ccc3n2)nn1 [Example I-134, N-((7-bromo-8-fluoroimidazo[1,5-a]pyridin-1-yl)methyl)-1-((6-cyclopropylimidazo[1,2-a]pyridin-2-yl)methyl)-1H-1,2,3-triazole-4-carboxamide]",< 1 nM,–
"N#Cc1cc(C2CC2)cn2cc(Cc3nnc(C(=O)NCc4ncn5ccc(Br)c(F)c45)o3)nc12 [Example I-154, N-((7-bromo-8-fluoroimidazo[1,5-a]pyridin-1-yl)methyl)-5-((8-cyano-6-cyclopropylimidazo[1,2-a]pyridin-2-yl)methyl)-1,3,4-oxadiazole-2-carboxamide]",< 1 nM,–
"O=C(NCc1ncn2ccc(Br)c(F)c12)c1cn(Cc2cn3nc(C4CC4)ccc3n2)nn1 [Example I-139, N-((7-bromo-8-fluoroimidazo[1,5-a]pyridin-1-yl)methyl)-1-((6-cyclopropylimidazo[1,2-b]pyridazin-2-yl)methyl)-1H-1,2,3-triazole-4-carboxamide]",< 1 nM,–
"O=C(NCc1ncn2ccc(Br)cc12)c1cn(Cc2cn3cc(C4CC4)ccc3n2)nc1C(F)F [Example I-95, N-((7-bromoimidazo[1,5-a]pyridin-1-yl)methyl)-1-((6-cyclopropylimidazo[1,2-a]pyridin-2-yl)methyl)-3-(difluoromethyl)-1H-pyrazole-4-carboxamide]",1 to 10 nM,–
"COCCc1cc(C2CC2)cn2cc(Cn3cc(C(=O)NCc4ncn5ccc(Cl)cc45)cn3)nc12 [Example I-125, N-((7-chloroimidazo[1,5-a]pyridin-1-yl)methyl)-1-((6-cyclopropyl-8-(2-methoxyethyl)imidazo[1,2-a]pyridin-2-yl)methyl)-1H-pyrazole-4-carboxamide]",< 1 nM,–
"COC(=O)C1CCN(c2cc(C3CC3)nn3cc(Cn4cc(C(=O)NCc5ncn6ccc(Cl)c(F)c56)nn4)nc23)C1 (stereo not drawn) [Example I-266, methyl 1-(2-((4-(((7-chloro-8-fluoroimidazo[1,5-a]pyridin-1-yl)methyl)carbamoyl)-1H-1,2,3-triazol-1-yl)methyl)-6-cyclopropylimidazo[1,2-b]pyridazin-8-yl)pyrrolidine-3-carboxylate]",< 1 nM,–
"NC(=O)c1cc(Cn2cc(C(=O)NCc3ncn4ccc(Cl)c(F)c34)nn2)cc2cc(C3CC3)cnc12 [Example I-275, 6-((4-(((7-chloro-8-fluoroimidazo[1,5-a]pyridin-1-yl)methyl)carbamoyl)-1H-1,2,3-triazol-1-yl)methyl)-3-cyclopropylquinoline-8-carboxamide]",10 to 100 nM,–
"CCOC(=O)Cc1cc(C2CC2)cn2cc(Cn3cc(C(=O)NCc4ncn5ccc(Br)c(F)c45)cn3)nc12 [Example I-105, ethyl 2-(2-((4-(((7-bromo-8-fluoroimidazo[1,5-a]pyridin-1-yl)methyl)carbamoyl)-1H-pyrazol-1-yl)methyl)-6-cyclopropylimidazo[1,2-a]pyridin-8-yl)acetate]",< 1 nM,–
"CC(C)(Cc1cc(C2CC2)cn2cc(Cn3cc(C(=O)NCc4ncn5ccc(Cl)c(F)c45)cn3)nc12)c1nn[nH]n1 [Example I-238, N-((7-chloro-8-fluoroimidazo[1,5-a]pyridin-1-yl)methyl)-1-((6-cyclopropyl-8-(2-methyl-2-(2H-tetrazol-5-yl)propyl)imidazo[1,2-a]pyridin-2-yl)methyl)-1H-pyrazole-4-carboxamide]",< 1 nM,–
"CCOC(=O)C1CC1c1nn(Cc2cn3cc(C4CC4)ccc3n2)cc1C(=O)NCc1ncn2ccc(Cl)cc12 (stereo not drawn) [Example I-113, ethyl 2-(4-(((7-chloroimidazo[1,5-a]pyridin-1-yl)methyl)carbamoyl)-1-((6-cyclopropylimidazo[1,2-a]pyridin-2-yl)methyl)-1H-pyrazol-3-yl)cyclopropane-1-carboxylate]",1 to 10 nM,–
"CCc1c(Cl)ccc2nc(Cn3cc(C(=O)NCc4ncn5ccc(Cl)cc45)cn3)cn12 [Example I-34, 1-((6-chloro-5-ethylimidazo[1,2-a]pyridin-2-yl)methyl)-N-((7-chloroimidazo[1,5-a]pyridin-1-yl)methyl)-1H-pyrazole-4-carboxamide]",10 to 100 nM,–
